Numbers after ± are expanded uncertainties.
Conditions: Liquid; for mass density: 298.15 K, 101.33 kPa, Vibrating tube method

| mass density [kg/m3] | vapor or sublimation pressure (370.29 K) [kPa] | vapor or sublimation pressure (414.53 K) [kPa] | vapor or sublimation pressure (395.1 K) [kPa] | SMILES |
| --- | --- | --- | --- | --- |
| 804.269 ± 0.19 | 101.3 ± 3.4 | – | – | CCCO [propan-1-ol] |
| 993.722 ± 0.3 | – | 101.3 ± 3.4 | – | CCC(=O)O [propanoic acid] |
| 881.619 ± 0.3 | – | – | 101.3 ± 1.7 | CCCOC(=O)CC [propyl propanoate] |

Source: the NIST ThermoML archive (doi:10.1021/je101302p)
